How the values were obtained:
murine bone marrow cells [1] = test: Murine bone marrow cell proliferation in vitro ([3H] thymidine incorporation); details: cisplatinum 25 μM, regardless the addition of vaso
murine bone marrow cells [2] = details: C57BL/6NCR, mouse, 77 nM

Compound	bone marrow cell proliferation induced by IL-3 at the highest dose of cisplatinum (murine bone marrow cells [1])	reduction of bone marrow cell proliferation (murine bone marrow cells [2])
N.N.[Cl][Pt][Cl] [Cisplatinum, cis-diammine-dichloroplatinum II, reference compound]	minimal	
COc1cc([C@@H]2c3cc4c(cc3[C@@H](O[C@@H]3O[C@@H]5CO[C@@H](C)O[C@H]5[C@H](O)[C@H]3O)[C@H]3COC(=O)[C@H]23)OCO4)cc(OC)c1O [Etoposide, reference compound]		1.5-2.7 fold
